Experimental data: article PMC12677652, “Procyanidin B3 and Its Derivatives Alleviate Neuronal Injury by Targeting G3BP1 for Ischemic Stroke Therapy” (Advanced Science, 2025)
pKd: −log10 of the molar value. Blank lines part the entries; values can stand above or below the compound they belong to.

Columns and labels:
[1] = molecular target: T1, recombinant human G3BP1 protein (Homo sapiens, UniProt Q13283); test: SPR analysis of binding to G3BP1 (Biacore T200, CM5 chip); conditions: 1:1 binding model, running buffer PBS
T1 construct: purchased Hubei Ipodix Biotechnology Co., Ltd. (China)
T1 sequence (Q13283 whole entry): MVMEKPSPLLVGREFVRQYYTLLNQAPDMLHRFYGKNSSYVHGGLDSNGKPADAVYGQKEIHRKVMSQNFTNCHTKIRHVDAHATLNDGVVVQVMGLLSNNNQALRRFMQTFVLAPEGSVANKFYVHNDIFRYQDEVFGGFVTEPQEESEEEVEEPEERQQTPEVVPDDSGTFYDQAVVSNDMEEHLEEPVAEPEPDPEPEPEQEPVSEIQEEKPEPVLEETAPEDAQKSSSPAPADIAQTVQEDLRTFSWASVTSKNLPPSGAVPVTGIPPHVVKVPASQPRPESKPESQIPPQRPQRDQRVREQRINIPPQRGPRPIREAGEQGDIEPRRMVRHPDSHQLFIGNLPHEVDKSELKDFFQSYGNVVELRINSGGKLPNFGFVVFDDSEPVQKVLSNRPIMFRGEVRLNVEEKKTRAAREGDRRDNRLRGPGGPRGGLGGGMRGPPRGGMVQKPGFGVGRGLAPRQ
Procedure: The SPR analyses were carried out using a Biacore T200 instrument (GE Healthcare, USA) with the Series Sensor Chip CM5 (GE Healthcare, USA). The recombinant human G3BP1 protein was purchased from Hubei Ipodix Biotechnology Co., Ltd. (China). The protein was immobilized on the chip using an amine coupling kit (GE Healthcare, USA). The blank channel served as the negative control. The binding experiments were performed at a flow rate of 30 µL min^−1. For the measurement of the kinetic parameters of PB3 and 6c, gradient dilutions of PB3 and 6c were injected into the immobilized protein. The running buffer was PBS. All biosensor data were processed and analyzed with Biacore T200 Evaluation software version 3.2 (GE Healthcare, USA) and fitted by a 1:1 binding model.

[2] = system: SG in HT22 cells; test: Immunofluorescence staining of G3BP1 to detect SG level in HT22 cells under OGD/R; assay type: cell-based; conditions: for ratio of SG‐positive cells: 100 µM; for SG levels: after 6 h of OGD, 24 h treatment
Procedure: Immunofluorescence analysis of the stress granule (SG) core component G3BP1 was utilized to investigate the SG formation in HT22 cells and the cortex. HT22 cells were treated with 4% paraformaldehyde for 15 min. Then the fixed brain tissue slices and HT22 cells were permeabilized for 5 min using 1% Triton X‐100 (Sigma‐Aldrich, USA) dissolved in PBS and blocked with a PBS solution containing 10% goat serum for 1 h, followed by incubation with anti‐G3BP1 antibody (catalog no. 66486‐1‐Ig, Proteintech, China) at 4 °C overnight. After being washed with PBS 3 times for 5 min each, samples were incubated with secondary antibody (Alexa Fluor 568 Goat anti‐mouse IgG, Invitrogen, USA) in the dark for 2 h at room temperature. The nucleus was stained with DAPI. Fluorescent pictures were obtained with a fluorescence microscope (Carl Zeiss, Germany).

[3] = system: tMCAO mice; test: tMCAO model in mice (neurological deficit score, infarct volume, apoptosis, SG level); assay type: in vivo; conditions: for SG levels in the ischemic cortex / ischemic brain tissue: 48 mg kg^−1, i.p.
Procedure: Mice were kept anesthetized during surgery with 1% pentobarbital sodium (50 mg kg^−1, Sigma‐Aldrich, USA) by i.p. injection. Transient ischemia was induced by using the suture occlusion technique according to our previous studies.^[ [10] ^] Expose the common carotid artery area, insert a 6–0 sized silicon rubber‐coated filament into the left internal carotid artery until it reaches the approximate branch of the left middle cerebral artery, and leave it for 1–1.5 h to block blood flow. Then, the suture and the filament were removed, and the wounds were sutured. 24 h after the operation, a series of phenotypic evaluations was conducted on each mouse. The Bederson score was applied according to our previous studies.^[ [10] ^]
Apoptosis level was evaluated by TUNEL staining and flow cytometry. For TUNEL staining, HT22 cells were treated with 4% paraformaldehyde for 15 min. Then the fixed brain tissue slices and HT22 cells were permeabilized for 5 min using 1% Triton X‐100 (Sigma‐Aldrich, USA) dissolved in PBS. TUNEL staining was executed by following the instructions, using a one‐step TUNEL apoptosis assay kit (Meilunbio, China). Red fluorescence was utilized to identify apoptotic cells, while 4′, 6‐diamidino‐2‐phenylindole (DAPI) was used to counterstain the nuclei. The fluorescence microscope (Carl Zeiss, Germany) was used to obtain images. For flow cytometry, apoptotic cells were determined with the Annexin V‐Alexa Fluor 488/PI apoptosis detection kit (Yeasen, China) by following the instructions. EDTA‐free trypsin (Gibco, USA) was added to HT22 cells (2.5 × 10^5 cells). The cells were collected and washed with pre‐cooling PBS 2 times, then suspended in 250 µL 1× binding buffer. 100 µL cell suspension was dyed with 5 µL Annexin V‐Alexa Fluor 488 and 10 µL PI and plunged into darkness at room temperature for 15 min. Then the cell suspension was mixed with 400 µL of 1× binding buffer. Cell apoptosis was immediately determined by Cytek Aurora (Cytek Biosciences, USA).
Cells and tissues were homogenized in RIPA buffer (Beyotime, China) containing protease inhibitors (Biovision, USA) on ice for 30 min. After centrifugation (13000 r min^−1, 4 °C) for 10 min, the resulting supernatant was collected. The protein concentrations were determined by a BCA protein assay kit (Thermo Scientific, USA). After separating a 10% sodium dodecyl sulfate (SDS)‐polyacrylamide gel, protein on the gel was then transferred onto nitrocellulose membranes (Merck, USA), which were blocked with 5% bovine serum albumin for 1 h to prevent non‐specific binding. Then, the anti‐caspase 3 antibody (catalog no. 9662, Cell Signaling Technology, USA), anti‐Bcl‐2 antibody (catalog no. GTX100064, GeneTex, USA), anti‐G3BP1 antibody (catalog no. 66486‐1‐Ig, Proteintech, China), anti‐β‐tubulin antibody (catalog no. 66240‐1‐Ig, Proteintech, China), and anti‐β‐actin antibody (catalog no. 66009‐1‐Ig, Proteintech, China) were used for treating the membrane overnight at 4 °C. Bound antibodies were detected with the species‐appropriate horseradish peroxidase‐labeled secondary antibody (Jackson ImmunoResearch, USA) using ECL reagents (ShareBio, China). Protein‐specific signals were detected using a Bio‐Rad Imager (Bio‐Rad, USA), and the bands were quantified by densitometric analysis software (ImageJ). β‐tubulin or β‐actin was used as a loading control.
Cerebral infarction volume was evaluated by Nissl staining or 2,3,5‐triphenyltetrazolium chloride staining. The infarct volume was computed using image‐processing software (Image J), and the percentage of the infarct volume was calculated according to our previous studies.^[ [10] ^] For Nissl staining, the fixed brain tissue slices were washed twice with ultrapure water for 2 min each time. Next, they were stained with Nissl staining solution (Beyotime, China) at 37 °C for 10 min, washed twice with ultrapure water, washed once with 95% ethanol, and washed twice with 70% ethanol. […]

[4] = 48 mg kg^−1 i.p., compared to the model group

pKd [1]: 7.36
Structure (SMILES): Oc1cc(O)c2c(c1)O[C@H](c1ccc(O)c(O)c1)[C@@H](O)[C@@H]2c1c(O)cc(O)c2c1O[C@H](c1ccc(O)c(O)c1)[C@@H](O)C2 [Compound 1, procyanidin B3]
ratio of SG‐positive cells ([2]; 1 h after administration): did not change significantly | ratio of SG‐positive cells ([2]; after 24 h of reoxygenation): significantly increased | SG levels [2]: enhance SG levels in a dose‐dependent manner | SG levels in the ischemic cortex / ischemic brain tissue [3]: significantly enhanced SG levels | neurological deficit score ([3]; 48 mg kg^−1 i.p., 1.5 h MCAO, 24 h after reperfusion): improved neurological deficits | infarct volume ([3]; 48 mg kg^−1 i.p., 1.5 h MCAO, 24 h reperfusion, Nissl staining): significantly reduced | apoptosis level (TUNEL staining of frozen brain sections) [3, 4]: significantly reduced | expression level of Bcl‐2 in the ischemic cortex [3, 4]: increased | expression level of cleaved caspase‐3 in the ischemic cortex [3, 4]: decreased

pKd [1]: 7.24
Structure (SMILES): CC(C)c1c(O)cc(O)c2c1O[C@H](c1ccc(O)c(O)c1)[C@@H](O)[C@@H]2c1c(O)cc(O)c2c1O[C@H](c1ccc(O)c(O)c1)[C@@H](O)C2 [Compound 6c, 8‐Isopropyl‐(+)‐Catechin‐(4α,8)‐(+)‐Catechin]
SG levels [2]: mediate SG upregulation | SG levels in the ischemic cortex / ischemic brain tissue [3]: mediate SG upregulation | neuroprotective activity compared with the model group ([3]; 48 mg kg^−1, 1.5 h of MCAO and 24 h of reperfusion): best neuroprotective activity | reduction of infarct volume ([3]; 1 h ischemia, i.p. injection after reperfusion, 24 h after reperfusion): ≈ 30% | neurological deficit score ([3]; 1 h ischemia, i.p. injection after reperfusion, 24 h after reperfusion, preliminary screening): more pronounced trend toward improving neurological deficits | infarct area and neurological function at different doses ([3]; 1.5 h of MCAO and 24 h of reperfusion): therapeutic effect on ischemic injury in a dose‐dependent manner
